From ChEMBL document CHEMBL3091332, “Recycling antimalarial leads for cancer: Antiproliferative properties of N-cinnamoyl chloroquine analogues” (Bioorg Med Chem Lett, 2013)
pIC50: −log10 of the molar value.

What was measured:
[1] = system: Caco-2; assay: Antiproliferative activity against human Caco2 cells after 2 days by sulforhodamine B assay; format: functional; details: Caco-2, 48 h
[2] = system: MCF7; assay: Antiproliferative activity against human MCF7 cells after 2 days by sulforhodamine B assay; format: functional; details: MCF7, 48 h
[3] = Antiproliferative activity against human MKN28 cells after 2 days by sulforhodamine B assay; format: functional; details: MKN-28, 48 h
[4] = Antiproliferative activity against human HFF1 cells after 2 days by sulforhodamine B assay; format: cell-based, HFF-1
[5] = target: Receptor tyrosine-protein kinase erbB-2 (Homo sapiens, UniProt P04626); assay: Inhibition of human HER2
Receptor tyrosine-protein kinase erbB-2, sequence (P04626 whole entry): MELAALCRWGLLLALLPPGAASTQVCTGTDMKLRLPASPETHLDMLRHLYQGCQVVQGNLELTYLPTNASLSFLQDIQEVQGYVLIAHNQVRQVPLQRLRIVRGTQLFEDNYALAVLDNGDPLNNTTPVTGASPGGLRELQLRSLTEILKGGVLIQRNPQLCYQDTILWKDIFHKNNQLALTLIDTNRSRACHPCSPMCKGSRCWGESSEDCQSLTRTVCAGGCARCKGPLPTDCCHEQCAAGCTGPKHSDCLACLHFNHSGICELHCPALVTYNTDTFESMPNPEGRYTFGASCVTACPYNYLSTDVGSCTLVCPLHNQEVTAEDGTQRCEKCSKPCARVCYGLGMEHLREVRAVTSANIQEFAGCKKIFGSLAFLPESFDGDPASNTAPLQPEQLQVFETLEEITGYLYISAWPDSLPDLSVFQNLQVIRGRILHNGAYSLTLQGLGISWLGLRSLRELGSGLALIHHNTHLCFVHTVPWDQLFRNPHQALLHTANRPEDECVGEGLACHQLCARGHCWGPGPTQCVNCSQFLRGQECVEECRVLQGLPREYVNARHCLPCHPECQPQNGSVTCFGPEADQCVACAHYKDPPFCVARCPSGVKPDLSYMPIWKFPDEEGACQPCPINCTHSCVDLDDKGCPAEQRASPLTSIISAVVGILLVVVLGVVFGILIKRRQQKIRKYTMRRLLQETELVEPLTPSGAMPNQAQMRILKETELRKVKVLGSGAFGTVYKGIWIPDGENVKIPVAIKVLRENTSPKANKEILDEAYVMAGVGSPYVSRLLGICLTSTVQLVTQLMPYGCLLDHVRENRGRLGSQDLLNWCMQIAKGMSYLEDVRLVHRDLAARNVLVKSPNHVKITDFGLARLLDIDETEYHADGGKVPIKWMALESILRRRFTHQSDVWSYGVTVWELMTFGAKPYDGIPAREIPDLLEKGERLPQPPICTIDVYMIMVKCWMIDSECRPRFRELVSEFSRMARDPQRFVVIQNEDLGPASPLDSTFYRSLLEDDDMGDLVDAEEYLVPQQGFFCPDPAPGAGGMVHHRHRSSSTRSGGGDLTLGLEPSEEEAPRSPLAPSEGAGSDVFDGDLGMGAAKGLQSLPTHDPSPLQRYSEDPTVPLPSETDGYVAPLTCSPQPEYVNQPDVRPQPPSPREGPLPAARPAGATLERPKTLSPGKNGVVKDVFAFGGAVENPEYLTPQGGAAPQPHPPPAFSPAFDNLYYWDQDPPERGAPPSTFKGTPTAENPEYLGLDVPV

SMILES: O=C(/C=C/c1ccccc1)NCCCCNc1ccnc2cc(Cl)ccc12
- GI50 [1]: 24.1 µM
- GI50 [2]: 14.8 µM
- GI50 [3]: 16.2 µM
- GI50 at 48 h [4]: > 100 µM

SMILES: COc1cccc2c1C(=O)c1c(O)c3c(c(O)c1C2=O)C[C@@](O)(C(=O)CO)C[C@@H]3O[C@H]1C[C@H](N)[C@H](O)[C@H](C)O1 [DOXORUBICIN]
- GI50 [1]: 0.32 µM
- GI50 [2]: 0.31 µM
- GI50 [3]: 0.24 µM
- GI50 at 48 h [4]: > 400 µM

SMILES: COc1ccc(/C=C/C(=O)OCCCCNc2ccnc3cc(Cl)ccc23)cc1
- GI50 [1]: 17.3 µM
- GI50 [2]: 5.08 µM
- GI50 [3]: 6.6 µM
- GI50 at 48 h [4]: 75.2 µM

SMILES: CCOc1cc2ncc(C#N)c(Nc3ccc(OCc4ccccn4)cc3)c2cc1NC(=O)/C=C/CN(C)C
- pIC50 [5]: 7.23

SMILES: CC(C)c1ccc(/C=C/C(=O)NCCCCNc2ccnc3cc(Cl)ccc23)cc1
- GI50 [1]: 11.9 µM
- GI50 [2]: 8.09 µM
- GI50 [3]: 22.3 µM
- GI50 at 48 h [4]: > 100 µM

SMILES: CC(C)c1ccc(/C=C/C(=O)NCCCCNc2ccnc3ccccc23)cc1
- GI50 [1]: 6.75 µM
- GI50 [2]: 5.24 µM
- GI50 [3]: 5.55 µM
- GI50 at 48 h [4]: 39.1 µM

SMILES: CC(C)c1ccc(/C=C/C(=O)NCCCCN2CCOCC2)cc1
- GI50 [1]: 29.6 µM
- GI50 [2]: 32.7 µM
- GI50 [3]: 72.5 µM
- GI50 at 48 h [4]: > 100 µM

SMILES: COc1ccc(/C=C/C(=O)NCCCCNc2ccncc2)cc1
- GI50 [1]: > 100 µM
- GI50 [2]: 77.1 µM
- GI50 [3]: 84.5 µM
- GI50 at 48 h [4]: > 100 µM

SMILES: O=C(/C=C/c1ccc(F)cc1)NCCCNc1ccnc2cc(Cl)ccc12
- GI50 [1]: 44.1 µM
- GI50 [2]: 5.24 µM
- GI50 [3]: 34.7 µM
- GI50 at 48 h [4]: 44.8 µM

SMILES: CC(C)c1ccc(/C=C/C(=O)NCCCCCNc2ccnc3cc(Cl)ccc23)cc1
- GI50 [1]: 9.16 µM
- GI50 [2]: 20.1 µM
- GI50 [3]: 14 µM
- GI50 at 48 h [4]: > 100 µM

SMILES: COc1ccc(/C=C/C(=O)NCCCCNc2ccnc3cc(Cl)ccc23)cc1
- GI50 [1]: 30.7 µM
- GI50 [2]: 25.2 µM
- GI50 [3]: 16.9 µM
- GI50 at 48 h [4]: > 100 µM

SMILES: O=C(/C=C/c1ccc(F)cc1)NCCCCNc1ccnc2cc(Cl)ccc12
- GI50 [1]: 15 µM
- GI50 [2]: 12.5 µM
- GI50 [3]: 11.8 µM
- GI50 at 48 h [4]: > 100 µM

SMILES: O=C(/C=C/c1ccccc1[N+](=O)[O-])NCCCCNc1ccnc2cc(Cl)ccc12
- GI50 [1]: 11.9 µM
- GI50 [2]: 13.3 µM
- GI50 [3]: 15.1 µM
- GI50 at 48 h [4]: > 100 µM

SMILES: CCN(CC)CCCC(C)Nc1ccnc2cc(Cl)ccc12 (stereo unspecified) [CHLOROQUINE]
- GI50 [1]: 38.7 µM
- GI50 [2]: 64.3 µM
- GI50 [3]: 44.4 µM
- GI50 at 48 h [4]: > 100 µM

SMILES: O=C(/C=C/c1cccc([N+](=O)[O-])c1)NCCCCNc1ccnc2cc(Cl)ccc12
- GI50 [1]: 19.3 µM
- GI50 [2]: 59.3 µM
- GI50 [3]: 16.2 µM
- GI50 at 48 h [4]: > 100 µM

SMILES: O=C(/C=C/c1cccc(F)c1)NCCCCNc1ccnc2cc(Cl)ccc12
- GI50 [1]: 25.4 µM
- GI50 [2]: 14.8 µM
- GI50 [3]: 15.3 µM
- GI50 at 48 h [4]: > 100 µM
